Measurements taken from US9073955B2, “2-amino-4-arylthiazole compounds as TRPA1 antagonists” (Glenmark Pharmaceuticals, S.A., priority 2010, dated 2015).
Read-outs that look alike come from different tables or passages of the source.

Columns and labels:
Human TRPA1 = molecular target: T1, Human TRPA1 (Homo sapiens, UniProt O75762); test: 45Calcium uptake assay: inhibition of AITC induced cellular uptake of radioactive calcium; format: cell-based; settings: human TRPA1 expressing CHO cells, AITC 30 μM; for inhibition at 1 µM: read-out: Percentage inhibition at 1.0 μM; for inhibition at 10 µM: read-out: Percentage inhibition at 10.0 μM
T1 construct: expressed in transfected cells; host or cells: CHO cells (grown with 400 μg/ml G-418)
Description: The illustrative examples of the present invention were screened for TRPA1 activity according to a modified procedure described in (a) Tóth, A. et al. Life Sciences, 2003, 73, 487-498. ([…]. et al, Proc. Natl. Acad. Sci. U.S.A., 2007, 104, 13525-13530. The screening of the compounds can be carried out by other methods and procedures known to persons skilled in the art. Screening for TRPA1 Antagonist Using the ^45Calcium Uptake Assay: The inhibition of TRPA1 receptor activation was measured as inhibition of allyl isothiocyanate (AITC) induced cellular uptake of radioactive calcium. Test compounds were dissolved in 100% DMSO to prepare 10 mM stock and then diluted using plain medium with 0.1% BSA and 1.8 mM CaCl2 to get the desired concentration. The final concentration of DMSO in the reaction was 0.5% (v/v). Human TRPA1 expressing CHO cells were grown in F-12 DMEM medium with 10% FBS, 1% penicillin-streptomycin solution, and 400 μg/ml of G-418. Cells were seeded 24 h prior to the assay in 96 well plates so as to get 50,000 cells per well on the day of experiment. Cells were treated with the test compounds for 10 minutes followed by the addition of AITC at a final concentration of 30 μM and 5 μCi/ml^45Ca^+2 for 3 minutes. Cells were washed and lysed using a buffer containing 1% Triton X-100, 0.1% deoxycholate and 0.1% SDS. Radioactivity in the lysate was measured in a Packard TopCount after addition of liquid scintillant. (Toth et al, Life Sciences (2003) 73, 487-498; McNamara C R et al, Proceedings of the National Academy of Sciences, (2007) 104, 13525-13530). Concentration response curves were plotted as a % of maximal response obtained in the absence of test antagonist. IC50 values can be calculated from concentration response curve by nonlinear regression analysis using GraphPad PRISM software.

[1] = Determination of solubility by shake flask method (water); format: physicochemical; settings: for solubility at 15 min: thermodynamic from solid, water, 37° C., shake flask
Description: About 1 mg of test substance was taken in test tube and water was added in the increment of 1 ml with shaking after addition of media (water). Solubility was observed visually also. After completion of addition of 10 ml volume of media (water), test tube containing sample solution were put on a mechanical shaker set at 37° C. and 200 rpm for shaking up to 15 minute. After shaking, content of flask was filtered through 0.45μ filter. This filtered solution is analyzed using HPLC method for quantification. A sample solution of 1 mg in 10 ml of DMSO is used as reference standard for quantifying dissolved test substance in media. Solubility is expressed as mcg/ml.
Aqueous solubility of ‘P’ substituted thiazole compounds and the parent thiazole compounds were determined using the above described procedure and the results are given Table 3.

[2] = Rat pharmacokinetic (PK) study, oral suspension; format: in vivo, male rats (Sprague Dawley); settings: for pharmacokinetic properties (Cmax and AUC) compared to the parent thiazole acetamide: compared with the corresponding parent compound of formula (1); for Cmax / AUC(0-t): rat, plasma, parent thiazole compound of the example, male Sprague Dawley rats, oral suspension; for AUC(0-t): read-out: AUC0-24
Description: PK values were obtained in male rats (strain: Sprague Dawley) orally dosed with the compounds of the present invention as suspension. Accurately weighed quantity of compound of present invention (corrected for purity and salt factor) was transferred into a clean and dry mortar. To this mortar was added 2.5 μL/mL Tween 80 and triturated until the compound gets properly wet. To this, 0.5% (w/v) methyl cellulose suspension was added in geometric proportions and triturated thoroughly to form a uniform suspension.
Animals were provided with food and water ad libitum through out the study period. Animals were dosed orally with the compounds using a gavage needle at 10 mL/kg body weight. Blood samples (250 μl approx.) were collected from male Sprague Dawley retro orbital sinus using rat capillary tubes into 0.6 mL eppendorf tubes with tripotassium ethylenediaminetetraacetic acid (K3 EDTA) (25 μL) as anticoagulant. Samples were collected at 0.5, 1.0, 2.0, 4.0, 6.0, 8.0, 12.0 and 24.0 hr post dosing for compounds. Then samples were centrifuged immediately at 1000 g for 10 min. at 4° C. Plasma samples were separated and stored at −70° C. till analysis. Samples were processed and analyzed using LCMS/MS. Pharmacokinetic parameters were calculated using Winonlin software. Table 4 provides the pK values (Cmax, AUC) obtained in these studies.

[3] = ‘P’ substituted thiazole compound
[4] = parent thiazole compound of the example

T1 sequence (O75762 whole entry): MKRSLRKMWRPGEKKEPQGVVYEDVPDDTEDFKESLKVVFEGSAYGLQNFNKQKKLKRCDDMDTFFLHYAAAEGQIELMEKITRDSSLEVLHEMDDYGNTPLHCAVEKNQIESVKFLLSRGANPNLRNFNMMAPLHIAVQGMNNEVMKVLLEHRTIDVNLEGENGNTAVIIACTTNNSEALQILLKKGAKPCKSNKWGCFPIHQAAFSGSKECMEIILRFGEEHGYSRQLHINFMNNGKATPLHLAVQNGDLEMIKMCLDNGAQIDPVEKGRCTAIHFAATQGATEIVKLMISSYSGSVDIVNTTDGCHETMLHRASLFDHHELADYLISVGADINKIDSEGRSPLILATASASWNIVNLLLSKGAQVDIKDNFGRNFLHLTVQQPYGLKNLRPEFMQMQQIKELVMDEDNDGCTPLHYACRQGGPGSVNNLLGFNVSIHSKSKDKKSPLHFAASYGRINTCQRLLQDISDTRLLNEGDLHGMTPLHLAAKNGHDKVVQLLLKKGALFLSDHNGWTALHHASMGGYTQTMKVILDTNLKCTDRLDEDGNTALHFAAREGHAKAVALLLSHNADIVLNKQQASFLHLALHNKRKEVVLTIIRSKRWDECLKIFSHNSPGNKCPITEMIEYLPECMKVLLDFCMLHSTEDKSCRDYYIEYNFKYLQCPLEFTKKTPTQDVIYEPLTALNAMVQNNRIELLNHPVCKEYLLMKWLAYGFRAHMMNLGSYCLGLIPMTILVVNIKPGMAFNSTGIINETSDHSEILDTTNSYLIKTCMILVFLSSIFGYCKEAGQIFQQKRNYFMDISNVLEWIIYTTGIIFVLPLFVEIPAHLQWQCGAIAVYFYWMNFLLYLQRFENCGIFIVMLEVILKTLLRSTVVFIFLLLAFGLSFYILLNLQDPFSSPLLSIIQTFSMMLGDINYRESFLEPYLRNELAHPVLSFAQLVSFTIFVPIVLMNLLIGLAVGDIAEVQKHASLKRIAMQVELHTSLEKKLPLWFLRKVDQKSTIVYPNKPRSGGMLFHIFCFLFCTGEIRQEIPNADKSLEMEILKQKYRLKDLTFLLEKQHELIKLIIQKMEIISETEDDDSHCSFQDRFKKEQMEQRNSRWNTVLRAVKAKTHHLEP

| IC50 (Human TRPA1) | pharmacokinetic properties (Cmax and AUC) compared to the parent thiazole acetamide [2] | inhibition at 10 µM (Human TRPA1; CHO) | solubility at 15 min [1, 3] | solubility at 15 min [1, 4] | Cmax [2] | AUC(0-t) [2] | SMILES | also measured |
| --- | --- | --- | --- | --- | --- | --- | --- | --- |
| > 500 nM | better pharmacokinetic properties | – | – | – | – | – | Cn1c(=O)c2c(CC(=O)/N=c3\scc(-c4ccc(C(F)(F)F)c(F)c4)n3COP(=O)(O)O)csc2n(C)c1=O [Example 11, [2-{[(1,3-Dimethyl-2,4-dioxo-1,2,3,4-tetrahydrothieno[2,3-d]pyrimidin-5-yl)acetyl]imino}-4-[3-fluoro-4-(trifluoromethyl)phenyl]-1,3-thiazol-3 (2H)-yl]methyl dihydrogen phosphate] | inhibition at 1 µM (Human TRPA1; 1.0 μM): 53.4%; inhibition at 10 µM (Human TRPA1): 99.8%; aqueous solubility over the parent thiazole acetamide ([1]; compared with the corresponding parent compound of formula (1)): better aqueous solubility |
| > 500 nM | better pharmacokinetic properties | 97.8% | > 10 µg/mL | – | – | – | Cc1oc2c(c1CC(=O)/N=c1\scc(-c3ccc(OC(F)(F)F)c(Cl)c3)n1COP(=O)(O)O)c(=O)n(C)c(=O)n2C [Example 25, [4-[3-Chloro-4-(trifluoromethoxy)phenyl]-2-{[(1,3,6-trimethyl-2,4-dioxo-1,2,3,4-tetrahydrofuro[2,3-d]pyrimidin-5-yl)acetyl]imino}-1,3-thiazol-3 (2H)-yl]methyl dihydrogen phosphate] | Percentage inhibition at 1.0 μM (Human TRPA1; 1.0 μM): 46.47% |
| > 500 nM | better pharmacokinetic properties | 92.4% | > 30 µg/mL | – | – | – | Cn1nc2c(c1CC(=O)/N=c1\scc(-c3ccc(F)c(C(F)(F)F)c3F)n1COP(=O)(O)O)c(=O)n(C)c(=O)n2C [Example 28, 4-(2,4-Difluoro-3-(trifluoromethyl)phenyl)-2-((2-(2,5,7-trimethyl-4,6-dioxo-4,5,6,7-tetrahydro-2H-pyrazolo[3,4-d]pyrimidin-3-yl)acetyl)imino)thiazol-3 (2H)-yl)methyl dihydrogen phosphate] | inhibition at 1 µM (Human TRPA1; CHO, 1.0 μM): 29.5% |
| – | – | – | – | < 0.2 µg/mL | < 250 ng/mL | < 4000 ng·h/mL | Cn1c(=O)c2c(CC(=O)Nc3nc(-c4ccc(F)c(C(F)(F)F)c4F)cs3)csc2n(C)c1=O [parent of Example 10, N-{4-[2,4-difluoro-3-(trifluoromethyl)phenyl]-1,3-thiazol-2-yl}-2-(1,3-dimethyl-2,4-dioxo-1,2,3,4-tetrahydrothieno[2,3-d]pyrimidin-5-yl)acetamide, reference compound] | – |
| – | – | – | – | < 1.1 µg/mL | < 250 ng/mL | < 3000 ng·h/mL | Cc1oc2c(c1CC(=O)Nc1nc(-c3ccc(OC(F)(F)F)c(Cl)c3)cs1)c(=O)n(C)c(=O)n2C [parent of Example 25, N-{4-[3-chloro-4-(trifluoromethoxy)phenyl]-1,3-thiazol-2-yl}-2-(1,3,6-trimethyl-2,4-dioxo-1,2,3,4-tetrahydrofuro[2,3-d]pyrimidin-5-yl)acetamide, reference compound] | – |
| – | – | – | – | < 0.1 µg/mL | < 500 ng/mL | < 7000 ng·h/mL | Cn1nc2c(c1CC(=O)Nc1nc(-c3ccc(F)c(C(F)(F)F)c3F)cs1)c(=O)n(C)c(=O)n2C [parent of Example 28, N-(4-(2,4-difluoro-3-(trifluoromethyl)phenyl)thiazol-2-yl)-2-(2,5,7-trimethyl-4,6-dioxo-4,5,6,7-tetrahydro-2H-pyrazolo[3,4-d]pyrimidin-3-yl)acetamide, reference compound] | – |
